Target: T1, CBI receptor (Rattus norvegicus, UniProt P20272)
T1 construct: Preparation of CBI receptor membrane protein in cerebellum of rat; from tissue; host or cells: Wistar rat cerebellum membranes
Experiment: Drug and CBI receptor competition binding experiment (rat cerebellum membrane protein)
Details: CBI receptor membrane protein from Wistar rat cerebellum; 30° C. for 1 hour; 1×10^−7 to 1×10^−11 mole concentration; read-out: antagonistic concentration of 50% (EC50) to CBI receptor
Experimental: 2.1 Preparation of CBI receptor membrane protein in cerebellum of rat: Wistar rat, 220-260 g, female and male being not limited, was killed by cutting head, its cerebellum was separated rapidly, weighted and added to a buffer of Tris-HCl in 10 times of volume (50 mM, Tris HCl, 5 mM MgCl2.6H2O, 1 mM EDTA, 0.5% (W/V) BSA, pH 7.4), homogenized by using homogenizer at 15000 rpm/min, 30 seconds once, 5 times in total. The homogenized liquid was centrifuged at 400×g for 10 minutes, the supernatant was centrifuged at 39000×g for 10 minutes, the precipitate was collected, re-suspended with Tris-HCl buffer of pH 7.4 in 10 times of volume of the original weight, and centrifuged at 39000×g for 10 minutes, the precipitate was washed with the same buffer, and centrifuged at 39000×g for 10 minutes, the resultant precipitate was washed with Tris-HCl. […]
100 μg of receptor protein, 20 μl of the compound in Example 1 in mole concentration of 1×10^−7, 1×10^−8, 1×10^−9, 1×10^−10 and 1×10^−11, respectively were added successively, reacted at 30° C. for 1 hour, the sample was spotted on glass fiber filtration membrane, filtrated under negative pressure, washed with cold buffer for 10 times, 2 ml per time, the filtration membrane was unwatered, dried over oven, and placed in scintillation bottle, added 1 ml scintillating liquid, the radioactivity strength was detected by LS6500 scintillation counter.

T1 sequence (P20272 whole entry): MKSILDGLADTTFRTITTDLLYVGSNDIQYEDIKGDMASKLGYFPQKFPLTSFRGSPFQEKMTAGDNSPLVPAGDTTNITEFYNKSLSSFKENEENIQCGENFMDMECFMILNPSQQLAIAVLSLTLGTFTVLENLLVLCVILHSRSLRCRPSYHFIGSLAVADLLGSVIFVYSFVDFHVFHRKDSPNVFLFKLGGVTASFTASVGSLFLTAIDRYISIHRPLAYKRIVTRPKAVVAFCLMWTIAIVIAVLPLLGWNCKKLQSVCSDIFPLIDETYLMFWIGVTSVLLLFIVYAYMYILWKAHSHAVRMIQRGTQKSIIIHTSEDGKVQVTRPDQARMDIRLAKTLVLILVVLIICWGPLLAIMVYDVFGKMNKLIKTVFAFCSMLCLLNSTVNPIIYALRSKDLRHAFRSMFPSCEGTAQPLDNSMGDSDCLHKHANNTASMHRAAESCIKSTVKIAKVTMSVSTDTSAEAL

EC50: 0.13 nM
SMILES: Cc1c(C(=O)NCc2cccnc2)nn(-c2ccc(Cl)cc2Cl)c1-c1ccc(Cl)cc1 [Example 1, N-(3-aminomethyl-pyridyl)-5-(4-chlorophenyl)-1-(2,4-dichlorophenyl)-4-methyl pyrazol-3-carboxamide]

Reference: US8030323B2, “Pyrazole carboxamide derivatives, pharmaceutical compositions and its preparation” (Beijing Molecule Science and Technology Co., Ltd., priority 2006, dated 2011)
